system: human G2 acute lymphoblastic leukemia (ALL) cells; test: Flow cytometry cell-based assay: inhibition of soluble VCAM-1 binding to G2 ALL cells; details: Table 8; inhibition of sVCAM-1 binding to human G2 ALL cells; read-out: sVCAM-1 IC50
Procedure: (§1) Compounds were tested for their ability to inhibit the binding of soluble VCAM-1 to human G2 acute lymphoblastic leukemia (ALL) cells. Briefly, G2 ALL cells are pre-incubated with increasing concentrations (0.001 to 1000 nM) of compounds for 30 minutes. Soluble VCAM/Fc chimera protein (R&D systems) is then added to the mixture and the cells incubated for an additional 30 minutes. Afterwards, cells are washed and VCAM-1 is detected using PE-conjugated secondary mAbs. In each experiment, an aliquot of cells will be stained with isotype control mAbs to serve as a negative control. The percentage of VCAM-1 binding cells was then determined by flow cytometry.
as §1, with “(ALL) cells or 5TGMI myeloma” for “(ALL)”, “ALL or 5TGMI” for “ALL”

IC50	Structure (SMILES)
72 nM	COc1cc(C(N)=O)cc(OC)c1-c1ccc(C[C@H](NC(=O)c2c(Cl)cc(C(=O)O)cc2Cl)C(=O)O)cc1 [Compound 1219, 4-{[(1S)-2-[4-(4-carbamoyl-2,6-dimethoxyphenyl)phenyl]-1-carboxyethyl]carbamoyl}-3,5-dichlorobenzoic acid]
0.47 nM	COc1cc(CO)cc(OC)c1-c1ccc(C[C@H](NC(=O)c2c(Cl)cc(C(=O)O)cc2Cl)C(=O)O)cc1 [Compound 1220, 4-{[(1S)-1-carboxy-2-{4-[4-(hydroxymethyl)-2,6-dimethoxyphenyl]phenyl}ethyl]carbamoyl}-3,5-dichlorobenzoic acid]

same assay, conditions: Table 10; inhibition of sVCAM-1 binding to human G2 ALL cells; read-out: sVCAM-1 IC50

IC50	Structure (SMILES)
4.47 nM	COc1cc(COC2COC2)cc(OC)c1-c1ccc(C[C@H](NC(=O)[C@@H]2CCCN2S(=O)(=O)c2cc(Cl)cc(Cl)c2)C(=O)O)cc1 [Compound 009]
69 nM	COc1cccc(N2CCC[C@H]2C(=O)N[C@@H](Cc2ccc(-c3c(OC)cccc3OC)cc2)C(=O)O)c1 [Compound 822]
48 nM	COc1cccc(OC)c1-c1ccc(C[C@H](NC(=O)C2(c3ccccn3)CCCC2)C(=O)O)cc1 [Compound 825]

same assay, conditions: Table 12; inhibition of sVCAM-1 binding to human G2 ALL cells; read-out: sVCAM-1 IC50

Structure (SMILES)	IC50
COc1cc(CO)cc(OC)c1-c1ccc(C[C@H](NC(=O)c2c(Cl)cc(C(=O)O)cc2Cl)C(=O)O)cc1 [Cmpd 22, 4-{[(1S)-1-carboxy-2-{4-[4-(hydroxymethyl)-2,6-dimethoxyphenyl]phenyl}ethyl]carbamoyl}-3,5-dichlorobenzoic acid]	0.47 nM
CCOCc1cc(OC)c(-c2ccc(C[C@H](NC(=O)c3c(Cl)cc(C(=O)O)cc3Cl)C(=O)O)cc2)c(OC)c1 [Cmpd 23, 4-{[(1S)-1-carboxy-2-{4-[4-(ethoxymethyl)-2,6-dimethoxyphenyl]phenyl}ethyl]carbamoyl}-3,5-dichlorobenzoic acid]	0.58 nM
COc1cc(C(C)(C)O)cc(OC)c1-c1ccc(C[C@H](NC(=O)c2c(Cl)cc(C(=O)O)cc2Cl)C(=O)O)cc1 [Cmpd 25, 4-{[(1S)-1-carboxy-2-{4-[4-(2-hydroxypropan-2-yl)-2,6-dimethoxyphenyl]phenyl}ethyl]carbamoyl}-3,5-dichlorobenzoic acid]	70 nM
COc1cc(CF)cc(OC)c1-c1ccc(C[C@H](NC(=O)c2c(Cl)cc(C(=O)O)cc2Cl)C(=O)O)cc1 [Cmpd 26, 4-{[(1S)-1-carboxy-2-{4-[4-(fluoromethyl)-2,6-dimethoxyphenyl]phenyl}ethyl]carbamoyl}-3,5-dichlorobenzoic acid]	1.57 nM

More lines, now with the values ahead:

IC50	Structure (SMILES)
72 nM	COc1cc(C(N)=O)cc(OC)c1-c1ccc(C[C@H](NC(=O)c2c(Cl)cc(C(=O)O)cc2Cl)C(=O)O)cc1 [Cmpd 21, 4-{[(1S)-2-[4-(4-carbamoyl-2,6-dimethoxyphenyl)phenyl]-1-carboxyethyl]carbamoyl}-3,5-dichlorobenzoic acid]
218 nM	COc1cc(C(=O)O)cc(OC)c1-c1ccc(C[C@H](NC(=O)c2c(Cl)cc(C(=O)O)cc2Cl)C(=O)O)cc1 [Cmpd 24, 4-{4-[(2S)-2-carboxy-2-[(4-carboxy-2,6-dichlorophenyl)formamido]ethyl]phenyl}-3,5-dimethoxybenzoic acid]
2.47 nM	CCOCc1cc(OC)c(-c2ccc(C[C@H](NC(=O)[C@]3(C)CCCN3S(=O)(=O)c3cc(Cl)cc(Cl)c3)C(=O)O)cc2)c(OC)c1 [Cmpd 33, (S)-2-((S)-1-((3,5-dichlorophenyl)sulfonyl)-2-methylpyrrolidine-2-carboxamido)-3-(4′-(ethoxymethyl)-2′,6′-dimethoxy-[1,1′-biphenyl]-4-yl)propanoic acid]
11.7 nM	CCOCc1cc(OC)c(-c2ccc(C[C@H](NC(=O)[C@]3(C)CCCN3S(=O)(=O)c3ccccc3)C(=O)O)cc2)c(OC)c1 [Cmpd 34, (S)-3-(4′-(ethoxymethyl)-2′,6′-dimethoxy-[1,1′-biphenyl]-4-yl)-2-((S)-2-methyl-1-(phenylsulfonyl)pyrrolidine-2-carboxamido)propanoic acid]

same assay, conditions: flow cytometry, FIG. 6, 7, 10, 11

Structure (SMILES)	inhibition of sVCAM-1 binding compared with other inhibitors
COc1cc(CO)cc(OC)c1-c1ccc(C[C@H](NC(=O)c2c(Cl)cc(C(=O)O)cc2Cl)C(=O)O)cc1 [Compound 1220, 4-{[(1S)-1-carboxy-2-{4-[4-(hydroxymethyl)-2,6-dimethoxyphenyl]phenyl}ethyl]carbamoyl}-3,5-dichlorobenzoic acid]	more potent inhibitors than 823
